Columns and labels:
[1] = system: 4T1 breast cancer xenograft tumors; test: In vivo experiment of breast cancer cells, daunorubicin nano drug carrier systems; conditions: 3 mg/kg via caudal veins, once every three days, 4 times; 4T1 in BALB/c mice
Experimental: Anti-tumor effects of nanoparticles in vivo are studied in BALB/c mice with 4T1 breast cancer xenograft tumors. Free daunorubicin (Group I), daunorubicin-Py-PEG-HP (Group II) and daunorubicin-Mal-PEG-HP (Group III) are administered via caudal veins at a dose of 3 mg/kg, for once every three days and in total 4 times, with the free daunorubicin group (Group I) as the control.

[2] = system: acute promyelocytic leukemia (HL-60) cells; test: Uptake experiment of leukemia cells; type: cell-based; conditions: 1×10^5/ml
Experimental: An uptake experiment of free daunorubicin, daunorubicin-Py-PEG-HP and daunorubicin-Mal-PEG-HP with acute promyelocytic leukemia (HL-60) cells: the concentration of HL-60 cells is adjusted to 1×10^5/ml, and the cells are added into a 24 -well plate with 1 ml per well; a certain concentration of pure DNR solution and a certain concentration of DNR-NP suspension are added into a culture plate, and cultured for a certain time, then the cells are taken out at five time points (30 min, 60 min, 90 min, 120 min and 180 min) respectively; centrifugation is performed at 4° C. under 1000 rpm for 5 min, and the cells are collected, and then washed twice using a RPM11640 medium added with serum; the cells are lysed with 1.5 ml of 50 μg/ml protease K and a 1% SDS solution, with continuous shaking performed at 37° C. for 12 hours, and a cell extract is collected; and the drug content in the cells is calculated by a fluorescence intensity standard curve.

[3] = system: xenotransplantation 4T1 tumor model; test: In vivo experiment of breast cancer cells, lenalidomide and lapatinib nano drug carrier systems; design: species or system BALB/c mice; conditions: 4 mg/kg via caudal veins, once every two days, 5 times; normal saline as control
Experimental: The anti-tumor effect of nanoparticles in vivo is based on investigation of a xenotransplantation 4T1 tumor model established in the BALB/c mice. Each of groups represents normal saline (Group I), free lenalidomide (Group II), lenalidomide-Py-PEG-HP (Group III), […] lenalidomide-Mal-PEG-HP (Group IV), free lapatinib (Group V), lapatinib-Py-PEG-HP (Group VI) and lapatinib-Mal-PEG-HP (Group VII) respectively, wherein they are administrated via caudal veins at a dosage of 4 mg/kg, once every two days, with a total of 5 times. As shown in the diagram below, the tumor development is detected on the second day after administration.

[4] = system: 5T33 multiple myeloma cells; test: In vivo experiment of multiple myeloma; design: species or system mice
Experimental: Thirty 6-week-old mice are divided into three groups, which are administrated with free lenalidomide (Group I), lenalidomide-Py-PEG-HP (Group II) and lenalidomide-Mal-PEG-HP (Group III) respectively. Male and female animals in each group are halved, and there is no statistically significant difference in body weight among animals in each group. The dosage of free lenalidomide group is 0.1 ml/kg body weight/day, and the dosage of lenalidomide-Py-PEG-HP group and lenalidomide-Mal-PEG-HP group is 20 mg/kg (body weight/day).
One week after injection of 1,000,000 5T33 multiple myeloma cells into the tail veins of mice, drugs are administered subcutaneously according to the above scheme, for three times a week. During the administration period, the animals are weighed every day, and the dosage on that day is determined according to the weight, and the animals are continuously administered until death of the mice. The venous blood of mice is collected and stored every week, and the time of death of mice is recorded.
According to the statistical test, there is significant difference in the survival time of mice when free lenalidomide group is compared with heparin nano drug carrier system (P<0.05), as shown in Table 1. There is significant difference in the tumor load in serum of mice when the free lenalidomide group is compared with heparin nano drug carrier system (P<0.05), as shown in Table 2.

SMILES | anti-tumor effect (tumor volume) [1] | uptake efficiency [2] [%] | anti-tumor effect (tumor development) [3] | Average survival days of mice after drug injection ([4]; 5T33 mice, subcutaneous, three times a week, free lenalidomide 0.1 ml/kg body weight/day, conjugates 20 mg/kg) [days] | Average tumor load in serum of mice after drug injection ([4]; 1 day, mouse LGg2b concentration) [µg/mL] | Average tumor load in serum of mice after drug injection ([4]; 8 days) [µg/mL] | Average tumor load in serum of mice after drug injection ([4]; 15 days) [µg/mL] | Average tumor load in serum of mice after drug injection ([4]; 22 days) [µg/mL] | Average tumor load in serum of mice after drug injection ([4]; 29 days) [µg/mL]
COc1cccc2c1C(=O)c1c(O)c3c(c(O)c1C2=O)C[C@@](O)(C(C)=O)C[C@@H]3O[C@H]1C[C@H](N)[C@H](O)[C@H](C)O1 [free daunorubicin, daunorubicin] | insignificant anti-tumor activity | 16 | – | – | – | – | – | – | –
CS(=O)(=O)CCNCc1ccc(-c2ccc3ncnc(Nc4ccc(OCc5cccc(F)c5)c(Cl)c4)c3c2)o1 [free lapatinib, lapatinib] | – | – | have the anti-tumor activity | – | – | – | – | – | –
Nc1cccc2c1CN(C1CCC(=O)NC1=O)C2=O (stereo not shown) [free lenalidomide, lenalidomide] | – | – | have the anti-tumor activity | 35 | 125.3 | 206.5 | 335.2 | 611.4 | 864.1

Source: US20220323591A1, “HEPARIN NANO DRUG CARRIER SYSTEM LOADED WITH AMINO ANTI-TUMOR DRUG AND PREPARATION METHOD THEREOF” (NANJING KING-FRIEND BIOCHEMICAL PHARMACEUTICAL CO., LTD., priority 2020, published 2022)
